The target of series [1] is T1, PSMA (Homo sapiens (Human), UniProt Q04609). The series is described as follows: NAALADase assay: PSMA inhibitory activity, fluorescence-based Amplex Red Glutamic Acid assay, lysates of LNCaP cell extracts. Type of series: biochemical. Here is the method: Briefly, lysates of LNCaP cell extracts (25 μL) were incubated with the inhibitor (12.5 μL) in the presence of 4 μM N-acetylaspartylglutamate (NAAG) (12.5 μL) for 120 min. The amount of the glutamate released by NAAG hydrolysis was measured by incubating with a working solution (50 μL) of the Amplex Red Glutamic Acid Kit for 60 min. […] Assays were performed in triplicate. Data analysis was performed using GraphPad Prism version 4.00 for Windows (GraphPad Software, San Diego, Calif.).
T1 sequence (Q04609 whole entry): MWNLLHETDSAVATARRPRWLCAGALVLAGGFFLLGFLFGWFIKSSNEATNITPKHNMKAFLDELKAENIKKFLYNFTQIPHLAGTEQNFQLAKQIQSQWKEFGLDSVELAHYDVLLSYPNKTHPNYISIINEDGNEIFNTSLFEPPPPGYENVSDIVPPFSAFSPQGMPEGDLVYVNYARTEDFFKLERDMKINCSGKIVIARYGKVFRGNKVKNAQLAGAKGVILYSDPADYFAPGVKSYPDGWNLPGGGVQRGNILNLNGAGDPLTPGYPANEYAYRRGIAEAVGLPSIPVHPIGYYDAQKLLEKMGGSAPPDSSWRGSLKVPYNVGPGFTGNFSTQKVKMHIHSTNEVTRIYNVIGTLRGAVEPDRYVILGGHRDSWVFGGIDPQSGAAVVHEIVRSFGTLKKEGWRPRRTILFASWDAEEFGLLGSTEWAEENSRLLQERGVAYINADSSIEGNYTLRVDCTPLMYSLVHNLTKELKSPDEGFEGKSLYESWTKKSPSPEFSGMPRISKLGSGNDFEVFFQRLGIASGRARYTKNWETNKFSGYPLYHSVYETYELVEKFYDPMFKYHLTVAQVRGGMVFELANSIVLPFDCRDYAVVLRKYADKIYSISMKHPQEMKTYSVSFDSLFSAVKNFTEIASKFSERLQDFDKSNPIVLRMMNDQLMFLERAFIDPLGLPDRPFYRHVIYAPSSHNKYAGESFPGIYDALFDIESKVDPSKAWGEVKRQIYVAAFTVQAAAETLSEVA

Series [2] deals with T1, PSMA. The note with it: from Chen, 2008; read-out: Ki, PSMA inhibition; cited from earlier work.
Series [3] concerns the target T1, PSMA. The note with it: cited from earlier work; for blood pool and salivary / lacrimal gland uptake in clinical PET imaging: patients.
Setting [4] is: Table 3, Cheng-Prusoff conversion, read-out: Ki.

Read-outs that look alike come from different tables or passages of the source.

One may read the Ki as the dissociation constant of the complex between target and ligand, obtained from inhibition or displacement. Broadly, the IC50 is the concentration that gives 50% inhibition.

In the case of `O=CO[C@@H](CNC(=O)N[C@@H](CCC(=O)O)C(=O)O)NC(=O)CCCNC(=O)c1ccc(I)cc1F` [XY-44], the Ki came to 0.017 nM in series [1] (Table 4, read-out: Ki) and 0.02 nM in series [1] (read-out: Ki, PSMA inhibition). As for `O=CO[C@@H](CNC(=O)N[C@@H](CCC(=O)O)C(=O)O)NC(=O)CCCNC(=O)c1ccc(C2=CCCCC2)cc1F` [XY-45], the Ki in series [1] (Table 4, read-out: Ki) came to 0.1 nM.

As to `O=C(O)CC[C@H](NC(=O)NC[C@@H](NC(=O)CCCNC(=O)c1ccc(-c2ccccc2)cc1F)C(=O)O)C(=O)O` [XY-46], the IC50 in series [1] (Table 3) turned out to be 2 nM. Further, the Ki in series [1] (setting [4]) worked out at 0.4 nM. In the same order, the values of `O=C(O)CC[C@H](NC(=O)O[C@@H](CCCCNC(=O)c1ccc(Cl)cc1F)C(=O)O)C(=O)O` [XY-49] are 192 nM and 38 nM. Take `O=C(O)CC[C@H](NC(=O)O[C@@H](CCCCNC(=O)c1ccc(I)cc1OCCCCNC(=O)c1ccc(I)cc1)C(=O)O)C(=O)O` [XY-50]: the IC50 in series [1] (Table 3) was found to be 3800 nM. Moreover, the Ki in series [1] (setting [4]) came to 770 nM. With `Cc1cc(Br)ccc1C(=O)NCCCC(=O)N[C@H](CNC(=O)N[C@@H](CCC(=O)O)C(=O)O)OC=O` [XY-58], the Ki in series [1] (Table 4, read-out: Ki) was 0.036 nM; in series [1] (read-out: Ki, PSMA inhibition) it was 0.04 nM. Take `O=CO[C@@H](CNC(=O)N[C@@H](CCC(=O)O)C(=O)O)NC(=O)CCCNC(=O)c1ccc(Br)cc1` [XY-59]: in series [1] (Table 4, read-out: Ki), the Ki was 0.02 nM. In the case of `O=CO[C@@H](CNC(=O)N[C@@H](CCC(=O)O)C(=O)O)NC(=O)CCCNC(=O)c1ccc(F)cc1` [YC-I-26, reference compound], the Ki was 0.3 nM in series [1] (Table 4, read-out: Ki) and 0.25 nM in series [2].

Consider `O=C(O)CC[C@H](NC(=O)N[C@@H](CSCc1ccc([18F])cc1)C(=O)O)C(=O)O` [[^18F]DCFBC], for which, in series [3], the “blood pool and salivary / lacrimal gland uptake in clinical PET imaging” value was “persistent blood pool occupancy but low salivary gland uptake”. Regarding `O=C(O)CC[C@H](NC(=O)N[C@@H](CCCCNC(=O)Nc1ccc([123I])cc1)C(=O)O)C(=O)O` [[^124I]-MIP-1095], in series [3], the “blood pool and salivary / lacrimal gland uptake in clinical PET imaging” value is “rapid clearance from the blood but high uptake in salivary and lacrimal glands”. On to `O=C(O)CC[C@H](NC(=O)N[C@@H](CCCCNC(=O)Nc1ccc([131I])cc1)C(=O)O)C(=O)O` [[^131I]-MIP-1095], for which the “dose-limiting organs from absorbed dose estimates” value in series [3] (Zechmann, 2014) was “salivary glands, lower large intestinal wall, and kidneys”.

Source of the values: patent US10736974B2, “Scaffolds and multifunctional intermediates for imaging PSMA and cancer therapy” (THE JOHNS HOPKINS UNIVERSITY, priority 2014, dated 2020).
